Assay: HT3 cells were treated for three days with increasing concentrations of PMPG-diisopropyloxy ester ranging from 0.2 μM to 20 μM. Cells (HT3 RPMI+10% PBS) were incubated with compound for 24 hr after which PSTS primer (phosphorothioate-d(AATCCGTCGAGCAGAGTT (SEQ ID NO: 6) containing a 5′ Cy-5 label) (7.5 μM) and fresh compound are added for an additional 24 hr. Cells were lysed and endogenous telomerase inactivated by heating (15 min, 75° C.). Products were amplified by 30 cycles of PCR under TRAP conditions set forth above and quantified.
Conditions: HT-3

| SMILES | EC50 [µM] |
| --- | --- |
| C=C(COCP(=O)(OCOC(=O)OC(C)C)OCOC(=O)OC(C)C)Cn1cnc2c(=O)[nH]c(N)nc21 | 10.8 |
| CC(C)OC(=O)OCOP(=O)(COC(C)Cn1cnc2c(=O)[nH]c(N)nc21)OCOC(=O)OC(C)C (configuration not stated) | 2.15 |

Source: ChEMBL document CHEMBL5725651, “Guanine analogs as telomerase substrates and telomere length affectors” (2018)
